Laboratory results published in article PMC10865825, “Sugar-binding and split domain combinations in repeats-in-toxin adhesins from Vibrio cholerae and Aeromonas veronii mediate cell-surface recognition and hemolytic activities” (mBio, 2024).

Biological target: T1, AvSBD-UKD (sugar-binding domain and split Ig-like domain of the A. veronii RTX adhesin, WP_103422706.1)
T1 construct: AvSBD-UKD, 40 kDa ortholog construct (WP_103422706.1), spanning SBD and UKD
Assay: isothermal titration calorimetry ([…]°C, one-site model, N = […])
Design: species or system Aeromonas veronii

## C[C@@H]1OC(O)[C@@H](O)[C@H](O)[C@@H]1O (stereo partly drawn) [L-fucose]
  Kd: 15 µM
